Common to all, as to format: biochemical
In one experiment the target is T1, KDM5B (PLU-1) (Homo sapiens, UniProt Q9UGL1).
T1 construct: 1-809; host or cells: E. coli
T1 sequence (Q9UGL1 1-809): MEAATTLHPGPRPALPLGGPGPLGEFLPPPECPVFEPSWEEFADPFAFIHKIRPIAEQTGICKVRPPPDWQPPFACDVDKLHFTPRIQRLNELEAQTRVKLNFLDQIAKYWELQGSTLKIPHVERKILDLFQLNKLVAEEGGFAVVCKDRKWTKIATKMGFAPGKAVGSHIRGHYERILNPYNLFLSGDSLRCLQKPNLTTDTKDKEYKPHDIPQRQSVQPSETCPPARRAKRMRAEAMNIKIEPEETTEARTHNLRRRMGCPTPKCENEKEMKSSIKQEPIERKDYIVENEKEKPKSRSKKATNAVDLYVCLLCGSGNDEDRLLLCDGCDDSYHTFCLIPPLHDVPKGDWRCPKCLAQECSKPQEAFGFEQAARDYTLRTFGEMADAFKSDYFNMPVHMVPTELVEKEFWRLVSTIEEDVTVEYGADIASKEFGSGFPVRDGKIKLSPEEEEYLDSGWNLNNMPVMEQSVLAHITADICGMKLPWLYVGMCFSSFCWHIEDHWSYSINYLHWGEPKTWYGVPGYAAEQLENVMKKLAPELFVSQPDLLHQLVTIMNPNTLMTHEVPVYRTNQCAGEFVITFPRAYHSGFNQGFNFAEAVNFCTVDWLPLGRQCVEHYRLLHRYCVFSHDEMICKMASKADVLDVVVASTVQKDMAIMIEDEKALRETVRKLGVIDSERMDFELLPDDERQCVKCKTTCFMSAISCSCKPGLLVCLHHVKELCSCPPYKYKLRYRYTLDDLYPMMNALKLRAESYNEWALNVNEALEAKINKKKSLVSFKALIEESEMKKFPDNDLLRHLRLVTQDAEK
Put plainly: Histone lysine demethylase AlphaLISA assay, KDM5B. Particulars: in vitro enzyme, read-out: KDM5B IC50 (HDME Inhibition). Background: Alpha assays give light when donor and acceptor beads are brought close together.

Another experiment has as its target T2, KDM2B (FBXL10) (Homo sapiens, UniProt Q8NHM5).
T2 construct: 1-650; purchased BPS Bioscience, US; host or cells: Bac (baculovirus/insect cells)
T2 sequence (Q8NHM5 1-650): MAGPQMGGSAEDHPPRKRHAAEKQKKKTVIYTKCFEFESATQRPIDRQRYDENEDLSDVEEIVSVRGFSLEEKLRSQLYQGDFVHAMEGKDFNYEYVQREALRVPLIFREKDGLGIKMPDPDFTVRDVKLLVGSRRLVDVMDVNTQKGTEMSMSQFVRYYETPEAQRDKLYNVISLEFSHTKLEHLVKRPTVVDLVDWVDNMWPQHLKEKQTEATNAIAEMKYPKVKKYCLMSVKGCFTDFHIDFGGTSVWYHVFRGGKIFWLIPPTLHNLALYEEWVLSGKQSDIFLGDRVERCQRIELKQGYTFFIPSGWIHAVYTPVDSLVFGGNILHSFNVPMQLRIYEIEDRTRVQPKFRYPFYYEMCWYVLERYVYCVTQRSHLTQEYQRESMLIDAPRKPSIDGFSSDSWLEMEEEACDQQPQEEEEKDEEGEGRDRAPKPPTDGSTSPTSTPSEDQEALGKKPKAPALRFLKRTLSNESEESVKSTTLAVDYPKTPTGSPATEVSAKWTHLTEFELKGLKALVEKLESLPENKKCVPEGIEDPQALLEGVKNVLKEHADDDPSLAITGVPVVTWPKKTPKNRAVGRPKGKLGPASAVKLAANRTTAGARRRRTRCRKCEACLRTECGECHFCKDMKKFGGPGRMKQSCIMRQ
Briefly: Histone lysine demethylase AlphaLISA assay, KDM2B. The conditions noted are these: in vitro enzyme, read-out: KDM2B IC50 (HDME Inhibition).

In a further experiment the target is T3, KDM6A (UTX) (Homo sapiens, UniProt O15550).
T3 construct: 919-1401; host or cells: E. coli
T3 sequence (O15550 919-1401): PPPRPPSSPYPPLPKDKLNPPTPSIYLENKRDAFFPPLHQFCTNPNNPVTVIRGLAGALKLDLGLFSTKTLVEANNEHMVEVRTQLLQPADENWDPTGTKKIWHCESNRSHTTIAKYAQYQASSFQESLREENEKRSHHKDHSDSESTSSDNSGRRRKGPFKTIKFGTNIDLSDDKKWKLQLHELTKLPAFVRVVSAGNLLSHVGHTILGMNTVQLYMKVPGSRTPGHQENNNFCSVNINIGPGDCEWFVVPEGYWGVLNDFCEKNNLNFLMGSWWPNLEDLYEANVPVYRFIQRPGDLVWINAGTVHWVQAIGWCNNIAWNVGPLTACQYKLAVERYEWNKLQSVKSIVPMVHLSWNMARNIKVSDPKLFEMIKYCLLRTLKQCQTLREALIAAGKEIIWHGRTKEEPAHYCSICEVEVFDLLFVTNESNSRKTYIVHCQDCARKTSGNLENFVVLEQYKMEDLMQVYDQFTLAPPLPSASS
Put plainly: Histone lysine demethylase AlphaLISA assay, KDM6A. The conditions noted are these: in vitro enzyme, read-out: KDM6A IC50 (HDME Inhibition).

A further experiment addresses T4, KDM4C (JMJD2C) (Homo sapiens, UniProt Q9H3R0).
T4 construct: 1-349; host or cells: E. coli
T4 sequence (Q9H3R0 1-349): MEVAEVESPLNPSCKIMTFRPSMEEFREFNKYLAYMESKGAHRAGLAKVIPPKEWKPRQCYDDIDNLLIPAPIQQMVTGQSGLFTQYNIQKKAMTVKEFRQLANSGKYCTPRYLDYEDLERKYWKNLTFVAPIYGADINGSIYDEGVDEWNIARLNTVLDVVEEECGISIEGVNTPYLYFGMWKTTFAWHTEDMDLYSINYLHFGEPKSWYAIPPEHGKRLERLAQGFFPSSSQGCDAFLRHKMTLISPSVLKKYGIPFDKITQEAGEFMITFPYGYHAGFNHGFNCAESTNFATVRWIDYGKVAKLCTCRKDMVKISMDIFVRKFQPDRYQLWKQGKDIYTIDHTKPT
Briefly: Histone lysine demethylase AlphaLISA assay, KDM4C. The conditions noted are these: in vitro enzyme, read-out: KDM4C IC50 (HDME Inhibition).

The next experiment deals with PHF8 (KDM7) (Homo sapiens, UniProt Q9UPP1). Briefly: Histone lysine demethylase AlphaLISA assay, PHF8. Particulars: in vitro enzyme, read-out: PHF8 IC50 (HDME Inhibition).
PHF8 (KDM7), sequence (Q9UPP1 whole entry): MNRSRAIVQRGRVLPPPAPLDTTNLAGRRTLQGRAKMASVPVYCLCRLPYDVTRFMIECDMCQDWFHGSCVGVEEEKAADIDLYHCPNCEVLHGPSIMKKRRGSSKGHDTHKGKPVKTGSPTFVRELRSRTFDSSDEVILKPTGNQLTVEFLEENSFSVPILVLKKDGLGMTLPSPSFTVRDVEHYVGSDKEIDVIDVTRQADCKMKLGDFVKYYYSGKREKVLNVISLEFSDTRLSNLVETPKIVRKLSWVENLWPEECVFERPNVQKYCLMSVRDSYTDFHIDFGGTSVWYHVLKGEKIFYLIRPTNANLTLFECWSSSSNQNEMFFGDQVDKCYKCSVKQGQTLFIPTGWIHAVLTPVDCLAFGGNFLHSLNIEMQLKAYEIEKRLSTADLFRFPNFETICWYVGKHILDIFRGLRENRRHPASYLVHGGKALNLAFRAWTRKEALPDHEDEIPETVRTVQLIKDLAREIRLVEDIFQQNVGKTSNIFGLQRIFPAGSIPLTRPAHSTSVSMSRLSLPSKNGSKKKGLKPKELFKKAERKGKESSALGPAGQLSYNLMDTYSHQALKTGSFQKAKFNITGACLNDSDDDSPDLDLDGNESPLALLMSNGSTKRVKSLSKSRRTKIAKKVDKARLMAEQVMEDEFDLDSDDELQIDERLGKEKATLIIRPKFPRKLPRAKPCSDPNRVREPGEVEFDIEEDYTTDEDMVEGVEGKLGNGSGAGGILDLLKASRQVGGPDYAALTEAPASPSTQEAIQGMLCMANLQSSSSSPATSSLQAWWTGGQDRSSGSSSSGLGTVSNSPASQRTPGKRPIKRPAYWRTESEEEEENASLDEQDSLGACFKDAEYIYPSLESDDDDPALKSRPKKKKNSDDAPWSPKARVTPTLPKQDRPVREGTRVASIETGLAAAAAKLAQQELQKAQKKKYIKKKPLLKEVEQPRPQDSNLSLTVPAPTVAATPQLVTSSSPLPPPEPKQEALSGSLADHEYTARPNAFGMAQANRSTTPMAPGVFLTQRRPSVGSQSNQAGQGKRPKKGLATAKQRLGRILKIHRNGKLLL

The structures appear in SMILES notation.

In general, IC50 refers to the midpoint of a concentration-inhibition curve.

Take `C[C@H](c1ccccc1)N1CCC[C@@H](CNCc2cc(C(=O)O)ccn2)C1=O` [Compound 14, 2-[({[(3S)-2-oxo-1-[(1R)-1-phenylethyl]piperidin-3-yl]methyl}amino)methyl]pyridine-4-carboxylic acid]: the half-maximal inhibitory concentration (IC50) was under 250 nM at KDM5B (PLU-1); 250 to 2500 nM on KDM2B (FBXL10); over 2500 nM on KDM6A (UTX); 250 to 2500 nM at KDM4C (JMJD2C); 250 to 2500 nM on PHF8 (KDM7).
As for `COc1ccc([C@@H](C)N2CCC[C@H](CNCc3cc(C(=O)O)ccn3)C2=O)cc1` [Compound 81, 2-[({[(3R)-1-[(1R)-1-(4-methoxyphenyl)ethyl]-2-oxopiperidin-3-yl]methyl}amino)methyl]pyridine-4-carboxylic acid], the half-inhibitory concentration (IC50) at KDM5B (PLU-1) is under 250 nM; at KDM2B (FBXL10), under 250 nM; at KDM6A (UTX) it was over 2500 nM; on KDM4C (JMJD2C), 250 to 2500 nM; on PHF8 (KDM7), 250 to 2500 nM.
For `C[C@H](c1ccccc1)N1CCC[C@H](CNCc2cc(C(=O)O)ccn2)C1=O` [Compound 2, 2-[({[(3R)-2-oxo-1-[(1R)-1-phenylethyl]piperidin-3-yl]methyl}amino)methyl]pyridine-4-carboxylic acid], the IC50 at KDM5B (PLU-1) was under 250 nM; on KDM2B (FBXL10) it was under 250 nM; on KDM6A (UTX), over 2500 nM; at KDM4C (JMJD2C) it was under 250 nM; at PHF8 (KDM7) it was 250 to 2500 nM.
`O=C(O)c1cc(CNCC(=O)N2CCCCC2)ncn1` [Compound 35, 6-({[2-oxo-2-(piperidin-1-yl)ethyl]amino}methyl) pyrimidine-4-carboxylic acid]: the IC50 at KDM2B (FBXL10) is 250 to 2500 nM; at KDM6A (UTX), over 2500 nM; at KDM4C (JMJD2C), 250 to 2500 nM; on PHF8 (KDM7), 250 to 2500 nM.
Regarding `COc1ccc([C@@H](C)N2CCC[C@@H](CNCc3cc(C(=O)O)ccn3)C2=O)cc1` [Compound 80, 2-[({[(3S)-1-[(1R)-1-(4-methoxyphenyl)ethyl]-2-oxopiperidin-3-yl]methyl}amino)methyl]pyridine-4-carboxylic acid], the IC50 at KDM5B (PLU-1) was under 250 nM; at KDM2B (FBXL10) it was under 250 nM; at KDM6A (UTX), over 2500 nM; on KDM4C (JMJD2C) it was 250 to 2500 nM; at PHF8 (KDM7) it was 250 to 2500 nM.
As to `Cc1cn2c(n1)CCN(Cc1cc(C(=O)O)ccn1)CC2` [Compound 69, 2-({2-methyl-5H,6H,7H,8H,9H-imidazo[1,2-d][1,4]diazepin-7-yl}methyl)pyridine-4-carboxylic acid], the IC50 on KDM5B (PLU-1) was under 250 nM; on KDM2B (FBXL10), over 2500 nM; at KDM6A (UTX), over 2500 nM; on KDM4C (JMJD2C), 250 to 2500 nM; on PHF8 (KDM7), 250 to 2500 nM.
Take `NC(=O)CCN(CC(=O)N1CCCCC1)Cc1cc(C(=O)O)ccn1` [Compound 34, 2-{[(2-carbamoylethyl)[2-oxo-2-(piperidin-1-yl)ethyl]amino]methyl} pyridine-4-carboxylic acid]: the IC50 was under 250 nM on KDM5B (PLU-1); 250 to 2500 nM on KDM2B (FBXL10); over 2500 nM on KDM6A (UTX); 250 to 2500 nM on KDM4C (JMJD2C); 250 to 2500 nM at PHF8 (KDM7).
Take `O=C(O)c1ccnc(CNC2CCc3cc(Br)cnc32)c1` (stereo not drawn) [Compound 103, 2-[({3-bromo-5H,6H,7H-cyclopenta[b]pyridin-7-yl}amino)methyl]pyri-dine-4-carboxylic acid]: the IC50 at KDM2B (FBXL10) was under 250 nM; at KDM6A (UTX), over 2500 nM; on KDM4C (JMJD2C) it was 250 to 2500 nM; on PHF8 (KDM7) it was under 250 nM.
Regarding `CC(C)(C)OC(=O)NCCCC[C@@H](CO)NCc1cc(C(=O)O)ccn1` [Compound 22, 2-({[(2S)-6-{[(tert-butoxy)carbonyl]amino}-1-hydroxyhexan-2-yl]amino}methyl)pyri-dine-4-carboxylic acid], the IC50 at KDM5B (PLU-1) is under 250 nM; on KDM2B (FBXL10) it was under 250 nM; on KDM6A (UTX) it was over 2500 nM; at KDM4C (JMJD2C), 250 to 2500 nM.
With `C=CCN(CC=C)C(=O)[C@@H](CCS(C)(=O)=O)NCc1cc(C(=O)O)ccn1` [Compound 37, 2-({[(1R)-1-[bis(prop-2-en-1-yl)carbamoyl]-3-methanesulfonylpropyl]amino}methyl)pyridine-4-carboxylic acid], the IC50 on KDM5B (PLU-1) is 250 to 2500 nM; at KDM2B (FBXL10), under 250 nM; at KDM6A (UTX), over 2500 nM; at KDM4C (JMJD2C), over 2500 nM; at PHF8 (KDM7), under 250 nM.
Take `C[C@H](N[C@H](C)c1cc(C(=O)O)ccn1)C(=O)NCc1ccc(CO)cc1` [Compound 16, 2-[(1R)-1-{[(1S)-1-({[4-(hydroxymethyl)phenyl]methyl}carbamoyl)ethyl]amino}ethyl] pyridine-4-carboxylic acid]: the IC50 at KDM2B (FBXL10) was 250 to 2500 nM; on KDM6A (UTX), over 2500 nM; on KDM4C (JMJD2C), over 2500 nM.
Regarding `C[C@H](c1ccccc1)N1CC[C@@H](CNCc2cc(C(=O)O)ccn2)C1=O` [Compound 17, 2-[({[(3S)-2-oxo-1-[(1R)-1-phenylethyl]pyrrolidin-3-yl]methyl}amino)methyl]pyridine-4-carboxylic acid], the IC50 on KDM5B (PLU-1) was under 250 nM; on KDM2B (FBXL10), under 250 nM; on KDM6A (UTX) it was over 2500 nM; on KDM4C (JMJD2C) it was 250 to 2500 nM; at PHF8 (KDM7) it was 250 to 2500 nM.
With `CCN1CCC(CNCc2cc(C(=O)O)ccn2)C1=O` (stereo not drawn) [Compound 39, 2-({[(1-ethyl-2-oxopyrrolidin-3-yl)methyl]amino}methyl)pyridine-4-carboxylic acid], the IC50 at KDM5B (PLU-1) was under 250 nM; at KDM2B (FBXL10) it was under 250 nM; at KDM6A (UTX), over 2500 nM; on KDM4C (JMJD2C), 250 to 2500 nM; on PHF8 (KDM7) it was 250 to 2500 nM.
